Peptide text beside a SMILES is read from it. * marks the point of attachment. Cbz = O=C(OCc1ccccc1)*; CH2F = FC*
Key:
[1] = test system: heme plus Pam3-treated BMDMs; experiment: Inhibitor effect on heme plus Pam3-induced cell death in BMDMs; format: cell-based, mouse
Procedure: (§1) Bone Marrow-Derived Macrophages (BMDMs). Primary mouse BMDMs from wild-type and indicated mutant mice were grown for 6 days in Iscove's Modified Dulbecco's Medium (IMDM; Thermo Fisher Scientific) supplemented with 10% Fetal Bovine Serum (Biowest), 30% L929-conditioned media, 1% non-essential amino acids (Thermo Fisher Scientific) and 1% penicillin and streptomycin (Thermo Fisher Scientific). BMDMs at a density of 1×10^6 cells/well in 12-well plates or 5×10^5 cells/well in 24-well plates were seeded into growth media overnight before use.
(§2) Cell Stimulation. BMDMs were stimulated with the following PAMPs, DAMPs and inhibitors alone or in combinations where indicated: 50 μM Hemin (heme; Sigma-Aldrich), 0.75 μg/mL Pam3CSK4 (Pam3; InvivoGen), 15 ng/mL ultrapure lipopolysaccharide (LPS) from E. coli 0111:B4 (InvivoGen), 500 ng/ml R848 (InvivoGen), 100 ng/mL TNF-α (Peprotech), 1 μg/mL poly(I:C) (Invivogen), 200 ng/mL monosodium urate crystals (Invivogen), 200 ng/mL recombinant mouse S100A8/S100A9 heterodimer (bio-techne), 200 ng/mL recombinant mouse HMGB1 (Abcam), 25 μM Z-VAD(OMe)-FMK (zVAD; Cayman Chemical) and 45 μM Necrostatin 2 racemate (Nec-1; Selleckchem).
(§3) Real-Time Imaging for Cell Death. The kinetics of cell death were monitored using the IncuCyte S3 or SX5 (Sartorius) live-cell analysis system. BMDMs (5×10^5 cells/well) were seeded in 24-well tissue culture plates and were treated with the indicated stimuli. Cell death was measured by propidium iodide (PI; Life Technologies) incorporation following the manufacturer's protocol. The plate was scanned for the indicated time durations where fluorescent and phase-contrast images were acquired in real-time every 1 hour. PI-positive dead cells are marked with a red mask and were quantified using the software package supplied with the IncuCyte imager.

[2] = test system: bone marrow-derived macrophages (BMDMs); experiment: Real-time imaging for cell death (propidium iodide incorporation, IncuCyte); format: cell-based, mouse; details: WT BMDMs; stimuli alone or combined; 48 hours (FIG. 1, FIG. 2)
Procedure: as §1, §2, §3

Row | Molecule | cell death [2] | further results
1 | CN1C(=O)NC(Cc2c[nH]c3c(Cl)cccc23)C1=O (racemic) [Nec-1, Necrostatin 2 racemate] | – | effect on cell death ([1]; WT BMDMs, heme plus Pam3, Nec-1 alone, compared to PBS control): partially reduced cell death
2 | CC(C)(O)c1coc(S(=O)(=O)NC(=O)Nc2c3c(cc4c2CCC4)CCC3)c1 [MCC950] | – | effect on cell death ([1]; heme plus Pam3-treated BMDMs, MCC950): did not prevent cell death
3 | O=c1[nH]c(=O)c2[nH]c([O-])nc2[nH]1.[Na+] [MSU, monosodium urate] | did not induce cell death | –
4 | C=CC1=C(C)c2cc3[n-]c(cc4[n-]c(cc5nc(cc1n2)C(C)=C5C=C)c(C)c4CCC(=O)O)c(CCC(=O)O)c3C.[Cl-].[Fe+3] [heme, ferriprotoporphyrin IX chloride] | did not induce cell death | –
5 | COC(=O)C[C@H](NC(=O)[C@H](C)NC(=O)[C@@H](NC(=O)OCc1ccccc1)C(C)C)C(=O)CF [zVAD, Z-VAD(OMe)-FMK] (Cbz-Val-Ala-Asp(OMe)-CH2F) | – | effect on cell death ([1]; WT BMDMs, heme plus Pam3, combination of Nec-1 with zVAD): further reduced the cell death
6 | Pam3CSK4 | Minimal cell death | –
7 | lipopolysaccharide [LPS] | Minimal cell death | –
8 | polyinosinic:polycytidylic acid [poly(I:C)] | Minimal cell death | –
9 | S100A8/A9: recombinant mouse S100A8/S100A9 heterodimer, a DAMP (protein, UniProt P27005 2-89; P31725 2-113, looked up) Protein S100-A8: PSELEKALSNLIDVYHNYSNIQGNHHALYKNDFKKMVTTECPQFVQNINIENLFRELDINSDNAINFEEFLAMVIKVGVASHKDSHKE Protein S100-A9: ANKAPSQMERSITTIIDTFHQYSRKEGHPDTLSKKEFRQMVEAQLATFMKKEKRNEALINDIMEDLDTNQDNQLSFEECMMLMAKLIFACHEKLHENNPRGHGHSHGKGCGK | did not induce cell death | –
10 | high-mobility group box 1 protein (protein, UniProt P63158 1-215, looked up, recombinant mouse HMGB1, a DAMP) High mobility group protein B1: MGKGDPKKPRGKMSSYAFFVQTCREEHKKKHPDASVNFSEFSKKCSERWKTMSAKEKGKFEDMAKADKARYEREMKTYIPPKGETKKKFKDPNAPKRPPSAFFLFCSEYRPKIKGEHPGLSIGDVAKKLGEMWNNTAADDKQPYEKKAAKLKEKYEKDIAAYRAKGKPDAAKKGVVKAEKSKKKKEEEDDEEDEEDEEEEEEEEDEDEEEDDDDE | did not induce cell death | –

From US20260166125A1, “NLRP12 AND NLRC5 MODULATORS AND METHODS FOR USING THE SAME TO MODULATE DISEASES” (St. Jude Children's Research Hospital, Inc., priority 2022, published 2026)
